Values joined by “and” are separate entries in the source; they are usually repeats but may differ in a detail not shown here. Equal entries are not always repeated. Where two headings read alike, the source gives them in different places.
Tests used:
[1] = Biodistribution in male Balb/C mice; assay type: in vivo; settings: for Biodistribution: Blood / Biodistribution: Brain / Biodistribution: Fat / Biodistribution: Heart / Biodistribution: Kidney / Biodistribution: Liver / Biodistribution: Lung / Biodistribution: Muscle / Biodistribution: Pancreas / Biodistribution: Spleen / Biodistribution: Bone: tail vein, mean ± SD, n = 4
Protocol: For the biodistribution studies, 100˜130 μCi of [^11C] TZ-20-35 in ˜100 μL of 10% ethanol/saline solution (v/v) was injected via the tail vein into mature male Balb/C mice (19-24 g) under anesthesia (2.5% isoflurane in oxygen at a flow rate of 1 mL/min). A group of at least four […] were used for each time point. […] The whole brain was quickly harvested. At the same time, samples of blood, heart, lung, liver, spleen, pancreas, kidney, muscle, fat, and tail were dissected. All the tissue samples were collected in tared tubes and counted in an automated gamma counter (Beckman Gamma 8000 well counter) with standards, prepared by diluting the injectate. The counted tissues were then weighed, and the % ID/g was calculated (Table 4).

[2] = molecular target: T1, α-synuclein fibrils (Homo sapiens, UniProt P37840); assay: ThT competitive assay for α-synuclein fibrils (Table 1); assay type: binding; settings: for EC50: α-synuclein fibrils
T1 construct: made in house; host or cells: E. coli BL21(DE3)RIL
Protocol: Upon binding to amyloid fibrils, a peak at approximately 440 nm becomes dominant with the fluorescent emission maximum shifted to 480 nm. This is accompanied by a strong enhancement of the fluorescence.
α-Synuclein recombinant protein was produced in E. coli. […] Freshly transformed BL21 colonies were inoculated into 2 L baffled flasks containing 250 mL sterilized TB (1.2% bactotryptone, 2.4% yeast extract, 0.4% glycerol, 0.17 M KH2PO4, 0.72 M K2HPO4) with 50 μg/ml ampicillin, and incubated overnight at 37° C. with shaking.
To determine the concentration of fibrils, the reaction mixture (100 μL) was centrifuged at 18,000×g for 10 minutes to separate fibrils from monomer. The α-synuclein monomer and other soluble proteins in the supernatant were removed, and the fibril pellet was resuspended in 100 μL solution of Tris-HCl (20 mM) and NaCl (100 mM). This fibril suspension was used in a bicinchoninic acid (BCA) protein assay along with a bovine serum albumin (BSA) standard curve to determine the concentration of fibrils in the 72 hour fibril reaction mixture.
To prepare the fibrils for performing binding assays, the fibril reaction mixture prepared above was centrifuged at 18,000×g for 10 minutes.
Once the ThT-α-synuclein saturation binding curve and dissociation constant (Kd) were determined the competitive assay for determining the binding affinity of various test compounds was conducted. […] The mixture was incubated at room temperature for 60 minutes on the shaking plate. The fluorescent intensity for each cell was measured by the fluorescence reader at λex and λem. The Ki value for each compound was calculated by the corresponding inhibition curve.
The Ki values were derived from the EC50 values using the Cheng-Prusoff equation: Ki=EC50/(1+[radioligand]/Kd). See FIGS. 17.1-31.2 for the inhibition curves for each compound in the ThioT competitive binding assay.

[3] = average, read-out: Ki (nM) α-syn (avg)
[4] = individual determinations, read-out: Ki (nM) α-syn
[5] = average, read-out: EC50 (nM) EC50 (avg)
[6] = individual determinations, read-out: EC50 (nM) EC50

COC(=O)c1ccc(/C=C/c2ccncc2)cc1 [[^11C]TZ-20-35]
brain uptake and washout (assessment in words) ([1]; 5 to 60 min post injection): Brain uptake and the washout kinetics were very good | Biodistribution: Blood ([1]; 5 min post injection): 5.21 ± 0.20 % ID/g | Biodistribution: Brain ([1]; 5 min post injection): 5.71 % ID/g and 5.71 ± 0.44 % ID/g | Biodistribution: Fat ([1]; 5 min post injection): 0.90 ± 0.42 % ID/g | Biodistribution: Heart ([1]; 5 min post injection): 4.72 ± 0.34 % ID/g | Biodistribution: Kidney ([1]; 5 min post injection): 4.73 ± 0.41 % ID/g | Biodistribution: Liver ([1]; 5 min post injection): 4.25 ± 0.36 % ID/g | Biodistribution: Lung ([1]; 5 min post injection): 4.78 ± 0.21 % ID/g | Biodistribution: Muscle ([1]; 5 min post injection): 4.06 ± 0.13 % ID/g | Biodistribution: Pancreas ([1]; 5 min post injection): 3.64 ± 0.44 % ID/g | Biodistribution: Spleen ([1]; 5 min post injection): 4.60 ± 0.16 % ID/g | organ recovery ([1]; 30 min post injection): 52% | Biodistribution: Blood ([1]; 30 min post injection): 2.79 ± 0.43 % ID/g | Biodistribution: Brain ([1]; 30 min post injection): 2.43 % ID/g and 2.43 ± 0.41 % ID/g | Biodistribution: Fat ([1]; 30 min post injection): 0.86 ± 0.07 % ID/g | Biodistribution: Heart ([1]; 30 min post injection): 2.61 ± 0.54 % ID/g | Biodistribution: Kidney ([1]; 30 min post injection): 4.43 ± 0.42 % ID/g | Biodistribution: Liver ([1]; 30 min post injection): 8.72 ± 0.37 % ID/g | Biodistribution: Lung ([1]; 30 min post injection): 2.94 ± 0.38 % ID/g | Biodistribution: Muscle ([1]; 30 min post injection): 2.25 ± 0.33 % ID/g | Biodistribution: Pancreas ([1]; 30 min post injection): 3.54 ± 0.90 % ID/g | Biodistribution: Spleen ([1]; 30 min post injection): 3.44 ± 0.23 % ID/g | organ recovery ([1]; 60 min post injection): 34% | Biodistribution: Blood ([1]; 60 min post injection): 1.75 ± 0.25 % ID/g | Biodistribution: Brain ([1]; 60 min post injection): 1.68 % ID/g and 1.68 ± 0.26 % ID/g | Biodistribution: Fat ([1]; 60 min post injection): 0.58 ± 0.09 % ID/g | Biodistribution: Heart ([1]; 60 min post injection): 1.80 ± 0.18 % ID/g | Biodistribution: Kidney ([1]; 60 min post injection): 4.23 ± 0.47 % ID/g | Biodistribution: Liver ([1]; 60 min post injection): 10.17 ± 1.08 % ID/g | Biodistribution: Lung ([1]; 60 min post injection): 2.21 ± 0.44 % ID/g | Biodistribution: Muscle ([1]; 60 min post injection): 1.18 ± 0.10 % ID/g | Biodistribution: Pancreas ([1]; 60 min post injection): 5.42 ± 1.25 % ID/g | Biodistribution: Spleen ([1]; 60 min post injection): 3.30 ± 0.36 % ID/g

COc1ccc2nc(/C=C/c3ccnc(Cl)c3)ccc2c1 [TZ-36-42]
Ki [2, 3]: 54 nM | Ki [2, 4]: 52 nM and 56 nM | EC50 [2, 5]: 140 nM | EC50 [2, 6]: 136 nM and 145 nM

COc1ccc(C(=O)N2CCN(C(=O)c3ccc(/C=C/c4ccncc4)cc3)CC2)cc1 [TZ-20-45]
Ki [2, 3]: 181 nM | Ki [2, 4]: 181 nM

Fc1ccc2nc(/C=C/c3cnccn3)ccc2c1 [TZ-36-22]
Ki [2, 3]: 109 nM | Ki [2, 4]: 109 nM | EC50 [2, 5]: 286 nM | EC50 [2, 6]: 286 nM

COc1cccc2ccc(/C=C/c3ccccc3)nc12 [TZ-19-148]
Ki [2, 3]: 614 nM | Ki [2, 4]: 614 nM

OCc1ccc2oc(-c3ccc(-c4ccc(F)nc4)c(C(F)(F)F)c3)nc2c1 [TZ-31-123]
Ki [2, 3]: 31400 nM | Ki [2, 4]: 31400 nM | EC50 [2, 5]: 82000 nM | EC50 [2, 6]: 82000 nM

O=C(Nc1ccc(I)cc1)c1ccc(/C=C/c2ccncc2)cc1 [TZ-23-56]
Ki [2, 3]: 19.8 nM | Ki [2, 4]: 19.8 nM

COc1ccc(/C=C/c2ncccn2)cc1 [TZ-22-31-1]
Ki [2, 3]: 2770 nM | Ki [2, 4]: 2770 nM

O=C(Nc1ccc(OCC[18F])cc1)c1ccc(/C=C/c2ccncc2)cc1 [[^18F]TZ-23-88]
Biodistribution: Blood ([1]; 5 min post injection): 2.50 ± 0.13 % ID/g | Biodistribution: Bone ([1]; 5 min post injection): 4.07 % ID/g and 4.07 ± 0.50 % ID/g | Biodistribution: Brain ([1]; 5 min post injection): 4.59 % ID/g and 4.69 ± 0.70 % ID/g | Biodistribution: Fat ([1]; 5 min post injection): 2.43 ± 0.42 % ID/g | Biodistribution: Heart ([1]; 5 min post injection): 4.82 ± 0.47 % ID/g | Biodistribution: Kidney ([1]; 5 min post injection): 35.67 ± 1.48 % ID/g | Biodistribution: Liver ([1]; 5 min post injection): 16.30 ± 3.53 % ID/g | Biodistribution: Lung ([1]; 5 min post injection): 8.50 ± 0.60 % ID/g | Biodistribution: Muscle ([1]; 5 min post injection): 2.60 ± 0.19 % ID/g | Biodistribution: Pancreas ([1]; 5 min post injection): 4.91 ± 0.68 % ID/g | Biodistribution: Spleen ([1]; 5 min post injection): 3.12 ± 0.12 % ID/g | Biodistribution: Blood ([1]; 30 min post injection): 2.30 ± 0.05 % ID/g | Biodistribution: Bone ([1]; 30 min post injection): 28.50 % ID/g and 28.50 ± 2.81 % ID/g | Biodistribution: Brain ([1]; 30 min post injection): 4.07 % ID/g and 4.07 ± 0.21 % ID/g | Biodistribution: Fat ([1]; 30 min post injection): 1.70 ± 0.17 % ID/g | Biodistribution: Heart ([1]; 30 min post injection): 2.23 ± 0.06 % ID/g | Biodistribution: Kidney ([1]; 30 min post injection): 15.72 ± 1.06 % ID/g | Biodistribution: Liver ([1]; 30 min post injection): 19.56 ± 0.97 % ID/g | Biodistribution: Lung ([1]; 30 min post injection): 2.57 ± 0.15 % ID/g | Biodistribution: Muscle ([1]; 30 min post injection): 1.35 ± 0.04 % ID/g | Biodistribution: Pancreas ([1]; 30 min post injection): 3.02 ± 0.19 % ID/g | Biodistribution: Spleen ([1]; 30 min post injection): 1.59 ± 0.08 % ID/g | Biodistribution: Blood ([1]; 60 min post injection): 1.28 ± 0.06 % ID/g | Biodistribution: Bone ([1]; 60 min post injection): 42.68 % ID/g and 42.68 ± 1.69 % ID/g | Biodistribution: Brain ([1]; 60 min post injection): 3.21 % ID/g and 3.21 ± 0.14 % ID/g | Biodistribution: Fat ([1]; 60 min post injection): 0.69 ± 0.10 % ID/g | Biodistribution: Heart ([1]; 60 min post injection): 1.23 ± 0.05 % ID/g | Biodistribution: Kidney ([1]; 60 min post injection): 5.59 ± 0.29 % ID/g | Biodistribution: Liver ([1]; 60 min post injection): 10.71 ± 0.80 % ID/g | Biodistribution: Lung ([1]; 60 min post injection): 1.31 ± 0.07 % ID/g | Biodistribution: Muscle ([1]; 60 min post injection): 0.75 ± 0.07 % ID/g | Biodistribution: Pancreas ([1]; 60 min post injection): 1.84 ± 0.33 % ID/g | Biodistribution: Spleen ([1]; 60 min post injection): 0.90 ± 0.07 % ID/g | Biodistribution: Blood ([1]; 120 min post injection): 0.70 ± 0.05 % ID/g | Biodistribution: Bone ([1]; 120 min post injection): 49.39 % ID/g and 49.39 ± 8.21 % ID/g | Biodistribution: Brain ([1]; 120 min post injection): 2.37 % ID/g and 2.37 ± 0.14 % ID/g | Biodistribution: Fat ([1]; 120 min post injection): 0.23 ± 0.12 % ID/g | Biodistribution: Heart ([1]; 120 min post injection): 0.71 ± 0.12 % ID/g | Biodistribution: Kidney ([1]; 120 min post injection): 1.94 ± 0.29 % ID/g | Biodistribution: Liver ([1]; 120 min post injection): 5.59 ± 0.39 % ID/g | Biodistribution: Lung ([1]; 120 min post injection): 0.71 ± 0.09 % ID/g | Biodistribution: Muscle ([1]; 120 min post injection): 0.55 ± 0.21 % ID/g | Biodistribution: Pancreas ([1]; 120 min post injection): 0.98 ± 0.10 % ID/g | Biodistribution: Spleen ([1]; 120 min post injection): 0.47 ± 0.04 % ID/g | crossing of the blood brain barrier ([1]; judged from brain uptake at 5 min): can cross the blood brain barrier and enter the brain | defluorination ([1]; judged from increasing bone uptake in the mice): strong defluorination

COc1ccc(/C=C/c2ccoc2)cc1 [TZ-34-27]
Ki [2, 3]: 551 nM | Ki [2, 4]: 1140 nM and 201 nM and 310 nM | EC50 [2, 5]: 1440 nM | EC50 [2, 6]: 2990 nM and 527 nM and 812 nM

COc1ccc(/C=C/c2cc(C)cs2)cc1 [TZ-34-38]
Ki [2, 3]: 252 nM | Ki [2, 4]: 387 nM and 114 nM and 256 nM | EC50 [2, 5]: 661 nM | EC50 [2, 6]: 1010 nM and 299 nM and 671 nM

COc1ccc2ccc(/C=C/c3cnccn3)nc2c1 [TZ-23-16]
Ki [2, 3]: 3180 nM | Ki [2, 4]: 3180 nM

COc1ccc(/C=C/c2ccc(C=O)s2)cc1 [TZ-34-41]
Ki [2, 3]: 148 nM | Ki [2, 4]: 148 nM | EC50 [2, 5]: 387 nM | EC50 [2, 6]: 387 nM

COc1ccc(C2CCN(C(=O)c3ccc(/C=C/c4ccncc4)cc3)CC2)cc1 [TZ-20-39]
Ki [2, 3]: 2460 nM | Ki [2, 4]: 2460 nM

Reference: patent publication US10300155B2, “Alpha-synuclein ligands” (Washington University, priority 2015, dated 2019)
